The target of the experiment is sLFA-1/ICAM-1 (Homo sapiens, UniProt P05107+P20701, DEL701-769). Nature of the experiment: sLFA-1/ICAM-1 ELISA (inhibition of 5dICAM-Fc binding to coated receptor). Conditions: control compounds; ICAM-1 binding ELISA, sLFA-1 or Mac-1 coated plates. As to the method: • Small molecules equipped with a maleimide functionality were covalently conjugated to the RNA through a thioether linkage. To enable this chemistry, ˜60 mg of the RNA containing the 5′-disulfide linker was reduced in water (5 mL) to the corresponding thiol using 1 mL TCEP (0.5 M in water, obtained from Sigma Aldrich). Once analytical anion exchange HPLC indicated completion of the reaction (˜2 h at room temperature) the RNA was precipitated with 30 mL ethanol/3M NaOAc (pH 5.4) 32:1 (v/v) over night at −20° C. The pellet was collected by centrifugation and used for the subsequent small molecule conjugation. • In a typical conjugation reaction 10 mg RNA was dissolved in 2 mL sodium phosphate buffer (0.1 M, pH 7.0). To this solution the small molecule (0.12 mM) in ACN/NMP 1:1 (v/v) was added over a period of 5 minutes. […] The pellet was collected by centrifugation, dissolved in water and if necessary purified by anion exchange HPLC pursuing the procedure given above. If the conjugate is sufficiently pure the reaction mixture was filtered through a size exclusion column (Sephadex G-25, GE Healthcare). Annealing of Oligoribonucleotides to Generate siRNA • Complementary strands were annealed by combining equimolar RNA solutions. […] Absorbance was measured at 450 nm. […]

The structures appear in SMILES notation.

Sequence of sLFA-1/ICAM-1 (P20701 26-1090 limits assumed, stated change not applied): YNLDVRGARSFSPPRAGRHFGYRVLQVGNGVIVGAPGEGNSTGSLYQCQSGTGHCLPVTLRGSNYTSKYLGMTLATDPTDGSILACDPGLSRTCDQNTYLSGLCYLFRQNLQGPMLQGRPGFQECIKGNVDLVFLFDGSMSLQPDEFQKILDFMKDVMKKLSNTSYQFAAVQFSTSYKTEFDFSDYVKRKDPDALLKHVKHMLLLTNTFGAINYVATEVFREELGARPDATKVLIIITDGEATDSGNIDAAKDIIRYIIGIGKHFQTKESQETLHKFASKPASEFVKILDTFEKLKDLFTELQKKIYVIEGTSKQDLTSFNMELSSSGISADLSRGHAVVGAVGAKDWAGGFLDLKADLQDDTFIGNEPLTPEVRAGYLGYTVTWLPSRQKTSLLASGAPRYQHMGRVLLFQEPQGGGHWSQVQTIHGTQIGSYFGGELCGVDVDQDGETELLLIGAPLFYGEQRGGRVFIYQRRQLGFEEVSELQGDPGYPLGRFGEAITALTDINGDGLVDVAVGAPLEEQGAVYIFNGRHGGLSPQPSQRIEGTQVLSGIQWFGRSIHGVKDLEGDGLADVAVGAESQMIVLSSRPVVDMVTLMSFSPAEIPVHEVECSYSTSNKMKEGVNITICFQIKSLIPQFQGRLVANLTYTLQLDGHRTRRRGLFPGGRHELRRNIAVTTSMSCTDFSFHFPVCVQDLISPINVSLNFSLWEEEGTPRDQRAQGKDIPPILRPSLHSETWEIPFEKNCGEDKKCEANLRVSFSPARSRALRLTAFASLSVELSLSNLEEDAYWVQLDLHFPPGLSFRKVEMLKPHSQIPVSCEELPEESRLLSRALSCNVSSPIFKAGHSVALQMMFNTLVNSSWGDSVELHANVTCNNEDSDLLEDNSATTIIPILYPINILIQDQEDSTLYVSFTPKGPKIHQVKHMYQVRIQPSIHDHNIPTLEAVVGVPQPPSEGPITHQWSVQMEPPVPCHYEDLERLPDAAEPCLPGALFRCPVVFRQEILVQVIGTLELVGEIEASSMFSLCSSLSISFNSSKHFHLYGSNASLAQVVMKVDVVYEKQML
Sequence of sLFA-1/ICAM-1 (P05107 23-700 limits assumed, stated change not applied): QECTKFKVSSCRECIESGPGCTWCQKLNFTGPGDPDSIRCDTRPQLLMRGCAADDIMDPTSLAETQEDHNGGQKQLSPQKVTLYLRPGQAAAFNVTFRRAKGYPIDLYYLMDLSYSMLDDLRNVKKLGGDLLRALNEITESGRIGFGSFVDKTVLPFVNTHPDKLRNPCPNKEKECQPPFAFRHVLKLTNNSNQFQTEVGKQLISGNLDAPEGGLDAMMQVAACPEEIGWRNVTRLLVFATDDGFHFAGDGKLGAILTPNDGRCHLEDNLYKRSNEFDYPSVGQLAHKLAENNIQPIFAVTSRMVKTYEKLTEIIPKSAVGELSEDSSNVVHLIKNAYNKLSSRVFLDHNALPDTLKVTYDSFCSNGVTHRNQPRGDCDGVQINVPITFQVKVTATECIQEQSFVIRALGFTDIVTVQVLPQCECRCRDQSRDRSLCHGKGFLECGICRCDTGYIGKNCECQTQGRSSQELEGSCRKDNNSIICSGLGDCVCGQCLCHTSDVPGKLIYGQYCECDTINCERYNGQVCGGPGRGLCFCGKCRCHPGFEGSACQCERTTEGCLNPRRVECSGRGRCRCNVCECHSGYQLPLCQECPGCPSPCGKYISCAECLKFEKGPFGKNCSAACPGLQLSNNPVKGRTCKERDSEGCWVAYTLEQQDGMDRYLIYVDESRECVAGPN

`Cc1cc(C(=O)NCc2cccc(O)c2)cc(C)c1C(=O)N[C@@H](CNC(=O)c1cccs1)C(=O)O` [compound 142]: the IC50 is approximately 37 nM. In turn, `O=C(NCc1cccc(O)c1)c1cc(Cl)c(C(=O)N[C@@H](CNC(=O)c2cc(O)cc(O)c2)C(=O)O)c(Cl)c1` [compound 143] had an IC50 of approximately 11 nM.

Source of the values: US9650363B2, “Integrin antagonist conjugates for targeted delivery to cells expressing LFA-1” (Hoffmann-La Roche Inc., priority 2012, dated 2017).
